We go through three compounds from paper PMC4139006 (Pediatric blood & cancer, 2013).

For series [1] the following is noted: human, in vivo.
The next series can be described thus: clinical. The settings on record: human, in vivo, po.
A short description of a further series: Phase I dose escalation. It counts as in vivo, children. Particulars: oral, days 1–5 every 28 days, VOR about one hour before TEM.
A further series relates to medulloblastoma/PNETs. Particulars: of 25 evaluable patients with medulloblastoma/PNETs; cited from earlier work.
The next series has as its system low-grade glioma. Particulars: single-agent temozolomide, cited from earlier work.
For series [2] the following is noted: systemically administered; cited from earlier work.
For series [3] the following is noted: given continuously as a single daily dose; pediatric; cited from earlier work.

Read-outs that look alike come from different tables or passages of the source.

What is called AUC(0-inf) is total exposure, with the tail of the curve extrapolated. Regarding `O=C(O)CCC(=O)Nc1ccccc1` [4-anilino-4-oxobutanoic acid, 4-anilino-4-oxobutanoic acid], the “AUC0-∞” value in series [1] (po, 300 mg/m2) was 9590 (7150 – 16600) ng/ml*hr. The Cmax is 814 (588 – 832) ng/ml in series [1] (po, 300 mg/m2); 0.49 µg/mL in “clinical” (230 mg/m2, Cmax); 0.75 µg/mL in “clinical” (300 mg/m2, Cmax). Besides, the Tmax in series [1] (po, 300 mg/m2) was 2.00 (0.88 – 6.00) hrs; in “clinical” (230 mg/m2, Tmax) it was 3 h; in “clinical” (300 mg/m2, Tmax) it was 4 h. The half-life in series [1] (po, 300 mg/m2) was 9.19 (6.49 – 11.6) hrs; in “clinical” (230 mg/m2, Half-life) it was 10.4 h; in the series “clinical” (300 mg/m2, Half-life), 9.18 h. Further, the AUC(0-inf) was 6.9 µg·h/mL in “clinical” (230 mg/m2, AUC0-∞) and 7.49 µg·h/mL in the series “clinical” (300 mg/m2, AUC0-∞).
For `Cn1nnc2c(C(N)=O)ncn2c1=O` [TEM, Temozolomide], the “pediatric MTD and recommended phase II dosing for the combination of VOR and TEM” value in “Phase I dose escalation” is on record as 150 mg/m^2/day. Moreover, the “complete or partial responses, patients” value with medulloblastoma/PNETs is reported as 4. Besides, in the series on low-grade glioma (adults), the “patients having prolonged stable disease” value is 30% and the response rates is on record as 50–60%. Besides, the “median progression-free survival (PFS)” value in the series on low-grade glioma is recorded as 22–28 months.
In the case of `O=C(CCCCCCC(=O)Nc1ccccc1)NO` [VOR, suberoylanilide hydroxamic acid], the “blood brain barrier crossing” value in series [2] is given as “crosses the blood brain barrier”. For the same compound, the “MTD of single-agent oral VOR” value in series [3] is on record as 230 mg/m^2/day. Further, in series [1], the “time to maximum concentration” value came to 2 h. Moreover, the Cmax in series [1] (po, 230 mg/m2) is 390 (221 – 655) ng/ml; in series [1] (po, 300 mg/m2) it was 578 (200 – 821) ng/ml; in “clinical” (300 mg/m2, Cmax), 0.422 µg/mL. For the same compound, the half-life was 2.80 (2.23 – 5.90) hrs in series [1] (po, 300 mg/m2); 2.61 h in the series “clinical” (230 mg/m2, Half-life); 2.62 h in the series “clinical” (300 mg/m2, Half-life). The “pediatric MTD and recommended phase II dosing for the combination of VOR and TEM” value in the series “Phase I dose escalation” came to 300 mg/m^2/day. In addition, the AUC(0-inf) in “clinical” (300 mg/m2, AUC0-∞) came out at 1.79 µg·h/mL.
